pIC50: −log10 of the molar value.
How the values were obtained:
JAK1 = JAK1 (Homo sapiens (Human), UniProt P23458); experiment: Jak Biochemical HTRF Assay, JAK1; conditions: HTRF biochemical assay, GST-tagged catalytic domain; top concentration tested […]; read-out: JAK1 IC50
Excerpt: (§1) Jak Biochemical HTRF Assay Protocol
(§2) Subsequent reagent additions employed an Agilent Bravo.

JAK2 = JAK2 (Homo sapiens (Human), UniProt O60674); experiment: Jak Biochemical HTRF Assay, JAK2; conditions: HTRF biochemical assay, GST-tagged catalytic domain; top concentration tested […]
Excerpt: as §1, §2

Sequence of JAK2 (O60674 849-1124): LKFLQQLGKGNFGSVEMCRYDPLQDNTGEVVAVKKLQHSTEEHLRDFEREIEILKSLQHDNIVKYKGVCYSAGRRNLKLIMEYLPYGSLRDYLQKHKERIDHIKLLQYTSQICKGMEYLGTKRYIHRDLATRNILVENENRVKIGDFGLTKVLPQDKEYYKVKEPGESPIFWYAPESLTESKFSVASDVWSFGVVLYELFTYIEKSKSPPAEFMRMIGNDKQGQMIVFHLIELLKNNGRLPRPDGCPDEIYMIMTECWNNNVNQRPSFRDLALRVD
Sequence of JAK1 (P23458 875-1153): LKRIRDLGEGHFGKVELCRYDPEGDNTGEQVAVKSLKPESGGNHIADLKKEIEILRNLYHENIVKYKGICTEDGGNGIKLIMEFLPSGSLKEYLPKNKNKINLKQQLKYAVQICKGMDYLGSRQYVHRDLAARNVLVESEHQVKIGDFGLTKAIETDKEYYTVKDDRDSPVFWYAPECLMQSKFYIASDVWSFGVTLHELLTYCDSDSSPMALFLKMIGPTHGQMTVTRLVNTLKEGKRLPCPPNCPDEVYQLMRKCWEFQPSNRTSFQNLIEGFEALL

Row | SMILES | pIC50 (JAK1) | pIC50 (JAK2)
1 | CC(C)(C)OC(=O)N1CCC(CC#N)(n2cc(C(N)=O)c(Nc3ccc(F)cn3)n2)CC1 [Example 13-4, tert-butyl 4-(4-carbamoyl-3-(5-fluoropyridin-2-ylamino)-1H-pyrazol-1-yl)-4-(cyanomethyl)piperidine-1-carboxylate] | 8.40 | 6.74
2 | CC(C)(C)OC(=O)N1CCC(CC#N)(n2cc(C(N)=O)c(Nc3cc(F)ccn3)n2)CC1 [Example 13-5, tert-butyl 4-(4-carbamoyl-3-(4-fluoropyridin-2-ylamino)-1H-pyrazol-1-yl)-4-(cyanomethyl)piperidine-1-carboxylate] | 7.82 | 6.04
3 | CC(C)(C)OC(=O)N1CCC(CC#N)(n2cc(C(N)=O)c(Nc3cccnn3)n2)CC1 [Example 13-6, tert-butyl 4-(4-carbamoyl-3-(pyridazin-3-ylamino)-1H-pyrazol-1-yl)-4-(cyanomethyl)piperidine-1-carboxylate] | 7.59 | 6.75
4 | CC(C)(C)OC(=O)N1CCC(CC#N)(n2cc(C(N)=O)c(Nc3cnccn3)n2)CC1 [Example 13-7, tert-butyl 4-(4-carbamoyl-3-(pyrazine-2-ylamino)-1H-pyrazol-1-yl)-4-(cyanomethyl)piperidine-1-carboxylate] | 8.10 | 6.68
5 | Cc1cncc(Nc2nn(C3(CC#N)CCN(C(=O)OC(C)(C)C)CC3)cc2C(N)=O)n1 [Example 13-8, tert-butyl 4-(4-carbamoyl-3-(6-methylpyrazine-2-ylamino)-1H-pyrazol-1-yl)-4-(cyanomethyl)piperidine-1-carboxylate] | 8.05 | 6.75
6 | Cc1cc(Nc2nn(C3(CC#N)CCN(C(=O)OC(C)(C)C)CC3)cc2C(N)=O)nc(C)n1 [Example 13-10, tert-butyl 4-(4-carbamoyl-3-(2,6-dimethylpyrimidin-4-ylamino)-1H-pyrazol-1-yl)-4-(cyanomethyl)piperidine-1-carboxylate] | 8.22 | 6.75
7 | Cc1cc(Nc2nn(C3(CC#N)CCN(C(=O)OC(C)(C)C)CC3)cc2C(N)=O)ncn1 [Example 13-11, tert-butyl 4-(4-carbamoyl-3-(6-methylpyrimidin-4-ylamino)-1H-pyrazol-1-yl)-4-(cyanomethyl)piperidine-1-carboxylate] | 8.30 | 6.90
8 | Cc1noc(C)c1-c1ccc(Nc2nn(C3(CC#N)CCN(C(=O)OC(C)(C)C)CC3)cc2C(N)=O)cc1 [Example 14, tert-Butyl 4-(4-carbamoyl-3-{[4-(3,5-dimethylisoxazol-4-yl)phenyl]amino}-1H-pyrazol-1-yl)-4-(cyanomethyl)piperidine-1-carboxylate] | 8.00 | 7.42
9 | CC(C)(C)OC(=O)N1CCC(CC#N)(n2cc(C(N)=O)c(Nc3cccc(-c4ccc(Cl)cc4)c3)n2)CC1 [Example 15-1, tert-Butyl 4-{4-carbamoyl-3-[(4′-chlorobiphenyl-3-yl)amino]-1H-pyrazol-1-yl}-4-(cyanomethyl)piperidine-1-carboxylate] | 6.83 | 5.83
10 | CC(C)(C)OC(=O)N1CCC(CC#N)(n2cc(C(N)=O)c(Nc3cccc(-c4ccc(F)cc4)c3)n2)CC1 [Example 15-2, tert-butyl 4-{4-carbamoyl-3-[(4′-fluorobiphenyl-3-yl)amino]-1H-pyrazol-1-yl}-4-(cyanomethyl)piperidine-1-carboxylate] | 7.29 | 5.96
11 | CC(C)(C)OC(=O)N1CCC(CC#N)(n2cc(C(N)=O)c(Nc3cccc(-c4ccccc4)c3)n2)CC1 [Example 15-3, tert-butyl 4-[3-(biphenyl-3-ylamino)-4-carbamoyl-1H-pyrazol-1-yl]-4-(cyanomethyl)piperidine-1-carboxylate] | 6.47 | 5.98
12 | COc1ccc(-c2cccc(Nc3nn(C4(CC#N)CCN(C(=O)OC(C)(C)C)CC4)cc3C(N)=O)c2)cc1 [Example 15-4, tert-butyl 4-{4-carbamoyl-3-[(4′-methoxybiphenyl-3-yl)amino]-1H-pyrazol-1-yl}-4-(cyanomethyl)piperidine-1-carboxylate] | 7.39 | 6.02
13 | CC(C)(C)OC(=O)N1CCC(CC#N)(n2cc(C(N)=O)c(Nc3cccc(-c4ccc(O)cc4)c3)n2)CC1 [Example 15-5, tert-butyl 4-{4-carbamoyl-3-[(4′-hydroxybiphenyl-3-yl)amino]-1H-pyrazol-1-yl}-4-(cyanomethyl)piperidine-1-carboxylate] | 7.85 | 6.53
14 | Cc1ccc(-c2cccc(Nc3nn(C4(CC#N)CCN(C(=O)OC(C)(C)C)CC4)cc3C(N)=O)c2)cc1 [Example 15-6, tert-butyl 4-{4-carbamoyl-3-[(4′-methylbiphenyl-3-yl)amino]-1H-pyrazol-1-yl}-4-(cyanomethyl)piperidine-1-carboxylate] | 7.07 | 5.83
15 | Cc1ccccc1-c1cccc(Nc2nn(C3(CC#N)CCN(C(=O)OC(C)(C)C)CC3)cc2C(N)=O)c1 [Example 15-7, tert-butyl 4-{4-carbamoyl-3-[(2′-methylbiphenyl-3-yl)amino]-1H-pyrazol-1-yl}-4-(cyanomethyl)piperidine-1-carboxylate] | 6.90 | 5.83
16 | CC(C)(C)OC(=O)N1CCC(CC#N)(n2cc(C(N)=O)c(Nc3cccc(-c4cccc(Cl)c4)c3)n2)CC1 [Example 15-8, tert-butyl 4-{4-carbamoyl-3-[(3′-chlorobiphenyl-3-yl)amino]-1H-pyrazol-1-yl}-4-(cyanomethyl)piperidine-1-carboxylate] | 6.79 | 5.83
17 | CC(C)(C)OC(=O)N1CCC(CC#N)(n2cc(C(N)=O)c(Nc3cccc(-c4ccc5ccccc5c4)c3)n2)CC1 [Example 15-9, tert-butyl 4-{4-carbamoyl-3-[(3-naphthalen-2-ylphenyl)amino]-1H-pyrazol-1-yl}-4-(cyanomethyl)piperidine-1-carboxylate] | 6.19 | 5.83
18 | CC(C)(C)OC(=O)N1CCC(CC#N)(n2cc(C(N)=O)c(Nc3cccc(-c4ccccc4F)c3)n2)CC1 [Example 15-10, tert-butyl 4-{4-carbamoyl-3-[(2′-fluorobiphenyl-3-yl)amino]-1H-pyrazol-1-yl}-4-(cyanomethyl)piperidine-1-carboxylate] | 7.51 | 6.08
19 | CC(C)(C)OC(=O)N1CCC(CC#N)(n2cc(C(N)=O)c(Nc3cccc(-c4ccccc4O)c3)n2)CC1 [Example 15-11, tert-butyl 4-{4-carbamoyl-3-[(2′-hydroxybiphenyl-3-yl)amino]-1H-pyrazol-1-yl}-4-(cyanomethyl)piperidine-1-carboxylate] | 7.89 | 6.74
20 | CC(C)(C)OC(=O)N1CCC(CC#N)(n2cc(C(N)=O)c(Nc3ccc(CC(=O)O)cc3)n2)CC1 [Example 18, [4-({1-[1-(tert-Butoxycarbonyl)-4-(cyanomethyl)piperidin-4-yl]-4-carbamoyl-1H-pyrazol-3-yl}amino)phenyl]acetic acid] | 10.00 | 8.00
21 | N#CCC1(n2cc(C(N)=O)c(Nc3ccccc3)n2)CN(CC(F)(F)F)C1 [Example 19, 1-[3-(Cyanomethyl)-1-(2,2,2-trifluoroethyl)azetidin-3-yl]-3-(phenylamino)-1H-pyrazole-4-carboxamide] | 6.79 | 6.06
22 | CN1CC(CC#N)(n2cc(C(N)=O)c(Nc3ccccc3)n2)C1 [Example 20, 1-[3-(Cyanomethyl)-1-methylazetidin-3-yl]-3-(phenylamino)-1H-pyrazole-4-carboxamide] | 6.45 | 5.83

Second part, the compound after the results:

Row | pIC50 (JAK1) | pIC50 (JAK2) | SMILES
23 | 8.22 | 7.34 | N#CCC1(n2cc(C(N)=O)c(Nc3ccccc3)n2)CCN(Cc2ccc(-c3ccccc3)cc2)CC1 [Example 21-1, 1-[1-(Biphenyl-4-ylmethyl)-4-(cyanomethyl)piperidin-4-yl]-3-(phenylamino)-1H-pyrazole-4-carboxamide]
24 | 8.52 | 7.96 | N#CCC1(n2cc(C(N)=O)c(Nc3ccccc3)n2)CCN(Cc2cccnc2)CC1 [Example 21-2, 1-[4-(cyanomethyl)-1-(pyridin-3-ylmethyl)piperidin-4-yl]-3-(phenylamino)-1H-pyrazole-4-carboxamide]
25 | 7.54 | 6.61 | N#CCC1(n2cc(C(N)=O)c(Nc3ccccc3)n2)CCN(Cc2ccc(C#N)cc2)CC1 [Example 21-4, 1-[1-(4-cyanobenzyl)-4-(cyanomethyl)piperidin-4-yl]-3-(phenylamino)-1H-pyrazole-4-carboxamide]
26 | 7.34 | 6.50 | N#CCCCN1CCC(CC#N)(n2cc(C(N)=O)c(Nc3ccccc3)n2)CC1 [Example 21-5, 1-[4-(cyanomethyl)-1-(3-cyanopropyl)piperidin-4-yl]-3-(phenylamino)-1H-pyrazole-4-carboxamide]
27 | 8.52 | 7.26 | N#CCC1(n2cc(C(N)=O)c(Nc3ccccc3)n2)CCN(Cc2ccccc2Cl)CC1 [Example 21-6, 1-[1-(2-chlorobenzyl)-4-(cyanomethyl)piperidin-4-yl]-3-(phenylamino)-1H-pyrazole-4-carboxamide]
28 | 7.96 | 6.87 | Cc1ccc(CN2CCC(CC#N)(n3cc(C(N)=O)c(Nc4ccccc4)n3)CC2)cc1 [Example 21-7, 1-[4-(cyanomethyl)-1-(4-methylbenzyl)piperidin-4-yl]-3-(phenylamino)-1H-pyrazole-4-carboxamide]
29 | 7.05 | 5.89 | N#CCC1(n2cc(C(N)=O)c(Nc3ccccc3)n2)CCN(Cc2cccc3ccccc23)CC1 [Example 21-8, 1-[4-(cyanomethyl)-1-(naphthalene-1-ylmethyl)piperidin-4-yl]-3-(phenylamino)-1H-pyrazole-4-carboxamide]
30 | 7.82 | 6.50 | N#CCC1(n2cc(C(N)=O)c(Nc3ccccc3)n2)CCN(CC2CCCCC2)CC1 [Example 21-9, 1-[4-(cyanomethyl)-1-(cyclohexylmethyl)piperidin-4-yl]-3-(phenylamino)-1H-pyrazole-4-carboxamide]

Source: patent US9328099B2, “Cyanomethylpyrazole carboxamides as janus kinase inhibitors” (Merck Sharp & Dohme Corp., priority 2011, dated 2016)
